The values that follow come from article PMC6150173, “Tryptophan-Containing Cyclic Decapeptides with Activity against Plant Pathogenic Bacteria” (Molecules : A Journal of Synthetic Chemistry and Natural …, 2017).

Common to all, as to format: cell-based
In data set [1] the test system is erythrocyte suspensions of human blood. The experiment in a line: Hemolytic activity, hemoglobin release. The settings on record: human blood erythrocytes 5% v/v, absorbance 540 nm, percentage compared to melittin, three replicates; for Hemolysis (%) at 50 µM: peptide 50 μM (table prints 50 µM); for Hemolysis (%) at 125 µM: peptide 125 μM (table prints 125 µM). Here is the method: The hemolytic activity of the compounds was evaluated at 50 and 125 μM by determining hemoglobin release from erythrocyte suspensions of human blood (5% v/v) (Oxoid) using absorbance at 540 nm, as previously described. Three replicates for each peptide concentration were used.

For data set [2], the system named is Erwinia amylovora PMV6076. As to the kind of experiment: Antibacterial activity (MIC), in vitro growth inhibition. The settings on record: Table S1, MIC range. The method, then:
(§1) Erwinia amylovora PMV6076 (Institut National de la Recherche Agronomique, Angers, France), Pseudomonas syringae pv. syringae EPS94 (Institut de Tecnologia Agroalimentària, Universitat de Girona, Spain), and Xanthomonas axonopodis pv. vesicatoria 2133-2 (Instituto Valenciano de Investigaciones Agrarias, Valencia, Spain) were used as bacterial strains. They were stored and cultivated as previously described.
(§2) The minimum inhibitory concentration (MIC) was analyzed as previously described at 0.8, 1.6, 3.1, 6.2, 12.5, 25 and 50 μM [20].

Data set [3] deals with Pseudomonas syringae pv. syringae EPS94. The description is as above. The settings on record: Table S1, MIC range. Here is the method: as §1, §2
Data set [4] relates to Xanthomonas axonopodis pv. vesicatoria 2133-2. The settings on record: Table S1, MIC range. Here is the method:
as §1, §2

Where “and” joins values, the source holds several entries; their conditions need not be identical. Equal entries are not always repeated. Peptide text beside a SMILES is read from it.

Consider `CC(C)C[C@@H]1NC(=O)[C@H](CCCCN)NC(=O)[C@H](CCCCN)NC(=O)[C@H](CCCCN)NC(=O)[C@H](CCC(N)=O)NC(=O)[C@H](CCCCN)NC(=O)[C@H](CC(C)C)NC(=O)[C@H](CC(C)C)NC(=O)[C@H](Cc2c[nH]c3ccccc23)NC(=O)[C@H](CCCCN)NC1=O` [BPC102W, c(KKKLKWLLKQ)] (cyclo(KKKLKWLLKQ)), for which, in data set [1], the “Hemolysis (%) at 50 µM” value is 12% and the “Hemolysis (%) at 125 µM” value stood at 17%. Besides, in data set [2], the “MIC Ea” value fell in the range of 12.5 to 25 µM. In addition, the “MIC Pss” value in data set [3] lay in the range of 3.1 to 6.2 µM. In addition, in data set [4], the “MIC Xav” value was in the range of 6.2 to 12.5 µM.
In the case of `CC(C)C[C@@H]1NC(=O)[C@H](CCCCN)NC(=O)[C@H](CCCCN)NC(=O)[C@H](CCCCN)NC(=O)[C@H](CCCCN)NC(=O)[C@H](CCC(N)=O)NC(=O)[C@H](CC(C)C)NC(=O)[C@H](CC(C)C)NC(=O)[C@H](CCCCN)NC(=O)[C@H](Cc2c[nH]c3ccccc23)NC1=O` [BPC060W, c(KKKKLWKLLQ)] (cyclo(KKKKLWKLLQ)), in data set [1], the “Hemolysis (%) at 50 µM” value is given as 22% and the “Hemolysis (%) at 125 µM” value stood at 29%. For the same molecule, the “MIC Ea” value in data set [2] lay within 12.5 to 25 µM. The “MIC Pss” value in data set [3] was 3.1 to 6.2 µM. Also, the “MIC Xav” value in data set [4] is 6.2 to 12.5 µM.
As to `CC(C)C[C@@H]1NC(=O)[C@H](CCCCN)NC(=O)[C@H](CCCCN)NC(=O)[C@H](Cc2c[nH]c3ccccc23)NC(=O)[C@H](CCCCN)NC(=O)[C@H](CCCCN)NC(=O)[C@H](CC(C)C)NC(=O)[C@H](CC(C)C)NC(=O)[C@H](CCCCN)NC(=O)[C@H](CCC(N)=O)NC1=O` [BPC094W, c(KLLKKWKKLQ)] (cyclo(KKLQKLLKKW)), in data set [1], the “Hemolysis (%) at 50 µM” value turned out to be 35% and the “Hemolysis (%) at 125 µM” value was found to be 42%. The “MIC Ea” value in data set [2] lay within 25 to 50 µM. The “MIC Pss” value in data set [3] was 6.2 to 12.5 µM. Besides, in data set [4], the “MIC Xav” value was 3.1 to 6.2 µM.
For `CC(C)C[C@@H]1NC(=O)[C@H](CCCCN)NC(=O)[C@H](CCC(N)=O)NC(=O)[C@H](CCCCN)NC(=O)[C@H](CCCCN)NC(=O)[C@H](CC(C)C)NC(=O)[C@H](Cc2c[nH]c3ccccc23)NC(=O)[C@H](CC(C)C)NC(=O)[C@H](CCCCN)NC(=O)[C@H](CCCCN)NC1=O` [BPC132W, c(KLKKLWLKKQ)] (cyclo(KKLWLKKQKL)), in data set [1], the “Hemolysis (%) at 50 µM” value is given as 5%; the “Hemolysis (%) at 125 µM” value is 8% and below 20%. Further, the “MIC Ea” value in data set [2] fell in the range of 12.5 to 25 µM. Also, the “MIC Pss” value in data set [3] is 3.1 to 6.2 µM. In addition, in data set [4], the “MIC Xav” value is 1.6 to 3.1 µM.
As to `CC(C)C[C@@H]1NC(=O)[C@H](CCCCN)NC(=O)[C@H](CCCCN)NC(=O)[C@H](CCC(N)=O)NC(=O)[C@H](CC(C)C)NC(=O)[C@H](CC(C)C)NC(=O)[C@H](CCCCN)NC(=O)[C@H](Cc2c[nH]c3ccccc23)NC(=O)[C@H](CCCCN)NC(=O)[C@H](CCCCN)NC1=O` [BPC064W, c(KKLKKWKLLQ)] (cyclo(KKLKKWKLLQ)), in data set [1], the “Hemolysis (%) at 50 µM” value worked out at 17% and the “Hemolysis (%) at 125 µM” value is given as 25%. In data set [2], the “MIC Ea” value fell in the range of 6.2 to 12.5 µM. Further, the “MIC Pss” value in data set [3] was in the range of 3.1 to 6.2 µM. In addition, in data set [4], the “MIC Xav” value lay in the range of 6.2 to 12.5 µM.
For the molecule `CC(C)C[C@@H]1NC(=O)[C@H](CCC(N)=O)NC(=O)[C@H](CCCCN)NC(=O)[C@H](CCCCN)NC(=O)[C@H](CC(C)C)NC(=O)[C@H](Cc2c[nH]c3ccccc23)NC(=O)[C@H](CC(C)C)NC(=O)[C@H](CCCCN)NC(=O)[C@H](CCCCN)NC(=O)[C@H](CCCCN)NC1=O` [BPC134W, c(LKKKLWLKKQ)] (cyclo(KKKLWLKKQL)), in data set [1], the “Hemolysis (%) at 50 µM” value turned out to be 3% and the “Hemolysis (%) at 125 µM” value worked out at 4%. Also, in data set [2], the “MIC Ea” value was 25 to 50 µM. The “MIC Pss” value in data set [3] was 6.2 to 12.5 µM. Further, the “MIC Xav” value in data set [4] is 3.1 to 6.2 µM.
Consider `CC(C)C[C@@H]1NC(=O)[C@H](CCC(N)=O)NC(=O)[C@H](CC(C)C)NC(=O)[C@H](CCCCN)NC(=O)[C@H](CCCCN)NC(=O)[C@H](Cc2c[nH]c3ccccc23)NC(=O)[C@H](CC(C)C)NC(=O)[C@H](CCCCN)NC(=O)[C@H](CCCCN)NC(=O)[C@H](CCCCN)NC1=O` [BPC086W, c(LKKKLWKKLQ)] (cyclo(KKKLWKKLQL)), for which, in data set [1], the “Hemolysis (%) at 50 µM” value came to 4%; the “Hemolysis (%) at 125 µM” value was 8% and ≤ 8%. For the same molecule, the “MIC Ea” value in data set [2] lay within 6.2 to 12.5 µM. The “MIC Pss” value in data set [3] lay in the range of 3.1 to 6.2 µM. Moreover, the “MIC Xav” value in data set [4] lay in the range of 0.8 to 1.6 µM.
With `CC(C)C[C@@H]1NC(=O)[C@H](CCCCN)NC(=O)[C@H](CCCCN)NC(=O)[C@H](CCC(N)=O)NC(=O)[C@H](CCCCN)NC(=O)[C@H](CCCCN)NC(=O)[C@H](CC(C)C)NC(=O)[C@H](Cc2c[nH]c3ccccc23)NC(=O)[C@H](CCCCN)NC(=O)[C@H](CC(C)C)NC1=O` [BPC136W, c(KKLLKWLKKQ)] (cyclo(KKLLKWLKKQ)), in data set [1], the “Hemolysis (%) at 50 µM” value is given as 1% and the “Hemolysis (%) at 125 µM” value was 2%. Further, in data set [2], the “MIC Ea” value lay in the range of 6.2 to 12.5 µM. Besides, in data set [3], the “MIC Pss” value was 6.2 to 12.5 µM. Also, the “MIC Xav” value in data set [4] is 3.1 to 6.2 µM.
As to `CC(C)C[C@@H]1NC(=O)[C@H](CCCCN)NC(=O)[C@H](CCCCN)NC(=O)[C@H](CCC(N)=O)NC(=O)[C@H](CC(C)C)NC(=O)[C@H](CCCCN)NC(=O)[C@H](CCCCN)NC(=O)[C@H](Cc2c[nH]c3ccccc23)NC(=O)[C@H](CCCCN)NC(=O)[C@H](CCCCN)NC1=O` [BPC194W, c(KKLKKWKKLQ)] (cyclo(KKLKKWKKLQ)), in data set [1], the “Hemolysis (%) at 50 µM” value worked out at 3% and the “Hemolysis (%) at 125 µM” value came to 5%. Besides, in data set [2], the “MIC Ea” value fell in the range of 12.5 to 25 µM. For the same molecule, the “MIC Pss” value in data set [3] lay within 12.5 to 25 µM. Moreover, the “MIC Xav” value in data set [4] lay in the range of 6.2 to 12.5 µM.
For the molecule `CC(C)C[C@@H]1NC(=O)[C@H](CCCCN)NC(=O)[C@H](CCC(N)=O)NC(=O)[C@H](CCCCN)NC(=O)[C@H](CC(C)C)NC(=O)[C@H](CCCCN)NC(=O)[C@H](Cc2c[nH]c3ccccc23)NC(=O)[C@H](CC(C)C)NC(=O)[C@H](CCCCN)NC(=O)[C@H](CCCCN)NC1=O` [BPC114W, c(KLKKLWKLKQ)] (cyclo(KKLWKLKQKL)), in data set [1], the “Hemolysis (%) at 50 µM” value came to 29% and the “Hemolysis (%) at 125 µM” value is on record as 38%. Moreover, the “MIC Ea” value in data set [2] lay within 12.5 to 25 µM. In addition, in data set [3], the “MIC Pss” value fell in the range of 3.1 to 6.2 µM. Also, the “MIC Xav” value in data set [4] is 1.6 to 3.1 µM.
In the case of `CC(C)C[C@@H]1NC(=O)[C@H](CCCCN)NC(=O)[C@H](Cc2c[nH]c3ccccc23)NC(=O)[C@H](CC(C)C)NC(=O)[C@H](CC(C)C)NC(=O)[C@H](CCCCN)NC(=O)[C@H](CCCCN)NC(=O)[C@H](CCCCN)NC(=O)[C@H](CCC(N)=O)NC(=O)[C@H](CCCCN)NC1=O` [BPC110W, c(KKKLLWKLKQ)] (cyclo(KKKLLWKLKQ)), in data set [1], the “Hemolysis (%) at 50 µM” value is listed as 3% and the “Hemolysis (%) at 125 µM” value was 4%. Moreover, the “MIC Ea” value in data set [2] was 12.5 to 25 µM. Besides, the “MIC Pss” value in data set [3] is 3.1 to 6.2 µM. The “MIC Xav” value in data set [4] was 6.2 to 12.5 µM.
For `CC(C)C[C@@H]1NC(=O)[C@H](CCCCN)NC(=O)[C@H](Cc2c[nH]c3ccccc23)NC(=O)[C@H](CCCCN)NC(=O)[C@H](CCCCN)NC(=O)[C@H](CC(C)C)NC(=O)[C@H](CC(C)C)NC(=O)[C@H](CCCCN)NC(=O)[C@H](CCC(N)=O)NC(=O)[C@H](CCCCN)NC1=O` [BPC122W, c(KLLKKWKLKQ)] (cyclo(KKWKLKQKLL)), in that order: 2%, 6%, 12.5 to 25 µM, 3.1 to 6.2 µM and 6.2 to 12.5 µM.
Turning to `CC(C)C[C@@H]1NC(=O)[C@H](CCCCN)NC(=O)[C@H](CCCCN)NC(=O)[C@H](Cc2c[nH]c3ccccc23)NC(=O)[C@H](CC(C)C)NC(=O)[C@H](CCCCN)NC(=O)[C@H](CC(C)C)NC(=O)[C@H](CCCCN)NC(=O)[C@H](CCCCN)NC(=O)[C@H](CCC(N)=O)NC1=O` [BPC082W, c(KKLKLWKKLQ)] (cyclo(KKLKLWKKLQ)), in data set [1], the “Hemolysis (%) at 50 µM” value worked out at 26% and the “Hemolysis (%) at 125 µM” value amounted to 34%. Also, in data set [2], the “MIC Ea” value lay within 12.5 to 25 µM. In data set [3], the “MIC Pss” value fell in the range of 6.2 to 12.5 µM. Besides, the “MIC Xav” value in data set [4] lay in the range of 1.6 to 3.1 µM.
The corresponding values for `CC(C)C[C@@H]1NC(=O)[C@H](CCCCN)NC(=O)[C@H](CCC(N)=O)NC(=O)[C@H](CCCCN)NC(=O)[C@H](CCCCN)NC(=O)[C@H](CC(C)C)NC(=O)[C@H](Cc2c[nH]c3ccccc23)NC(=O)[C@H](CCCCN)NC(=O)[C@H](CCCCN)NC(=O)[C@H](CC(C)C)NC1=O` [BPC142W, c(KLLKKWLKKQ)] (cyclo(KKQKLLKKWL)) are 16%, 18%, 12.5 to 25 µM, 6.2 to 12.5 µM and 3.1 to 6.2 µM.
The corresponding values for `CC(C)C[C@@H]1NC(=O)[C@H](CCCCN)NC(=O)[C@H](CCCCN)NC(=O)[C@H](CCC(N)=O)NC(=O)[C@H](CCCCN)NC(=O)[C@H](CCCCN)NC(=O)[C@H](CC(C)C)NC(=O)[C@H](Cc2c[nH]c3ccccc23)NC(=O)[C@H](CC(C)C)NC(=O)[C@H](CCCCN)NC1=O` [BPC130W, c(KKLKLWLKKQ)] (cyclo(KKLKLWLKKQ)) are 1%, 2%, 12.5 to 25 µM, 6.2 to 12.5 µM and 1.6 to 3.1 µM.
